The text below walks through data of ChEMBL document CHEMBL1132810, “Inhibition of vertebrate squalene epoxidase by isoprenyl gallates and phenylalkyl gallates” (Bioorg Med Chem Lett, 2000).

The structures appear in SMILES notation.

In the experiment the target is Squalene monooxygenase (Rattus norvegicus, UniProt P52020). Description: Compound was evaluated for its inhibitory activity against recombinant rat SE(squalene epoxidase).
Squalene monooxygenase, sequence (P52020 whole entry): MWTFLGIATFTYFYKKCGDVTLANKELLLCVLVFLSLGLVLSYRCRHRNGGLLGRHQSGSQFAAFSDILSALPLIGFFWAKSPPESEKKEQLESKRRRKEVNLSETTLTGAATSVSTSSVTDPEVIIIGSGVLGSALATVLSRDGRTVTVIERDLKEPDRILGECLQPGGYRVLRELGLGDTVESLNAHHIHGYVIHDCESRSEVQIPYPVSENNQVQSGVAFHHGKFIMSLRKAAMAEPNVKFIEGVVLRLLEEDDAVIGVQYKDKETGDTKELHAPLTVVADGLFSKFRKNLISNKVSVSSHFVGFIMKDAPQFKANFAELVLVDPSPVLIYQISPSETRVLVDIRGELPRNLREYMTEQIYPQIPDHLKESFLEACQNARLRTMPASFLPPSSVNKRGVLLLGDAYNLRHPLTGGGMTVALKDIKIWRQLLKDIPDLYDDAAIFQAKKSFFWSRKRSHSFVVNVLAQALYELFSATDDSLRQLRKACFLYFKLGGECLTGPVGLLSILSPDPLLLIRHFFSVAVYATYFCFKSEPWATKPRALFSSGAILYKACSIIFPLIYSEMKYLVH
With `O=C(OCCCCCCc1ccccc1)c1cc(O)c(O)c(O)c1`, the IC50 (as a rule, the point on the concentration scale where inhibition reaches its midpoint) is 11.9 µM.
In the case of `O=C(OCCCCCCCCCCc1ccccc1)c1cc(O)c(O)c(O)c1`, the IC50 came out at 15.3 µM.
To `O=C(OCCCCc1ccccc1)c1cc(O)c(O)c(O)c1` belongs 61.3 µM; to `O=C(O[C@@H]1Cc2c(O)cc(O)cc2O[C@@H]1c1cc(O)c(O)c(O)c1)c1cc(O)c(O)c(O)c1` [EPIGALOCATECHIN GALLATE], 0.69 µM.
Consider `CC(C)=CCC/C(C)=C/CC/C(C)=C/COC(=O)c1cc(O)c(O)c(O)c1`, for which the IC50 was 1.5 µM.
`CCCCCCCCCCCCOC(=O)c1cc(O)c(O)c(O)c1` [DODECYL GALLATE]: the IC50 turned out to be 0.061 µM.
`CC(C)=CCC/C(C)=C/COC(=O)c1cc(O)c(O)c(O)c1` [Geranyl gallate]: the 50% inhibitory concentration (IC50) is 12.5 µM.
Regarding `CC(C)=CCC/C(C)=C/CC/C(C)=C/CC/C=C(\C)CC/C=C(\C)CCCOC(=O)c1cc(O)c(O)c(O)c1`, the IC50 was determined as 5.1 µM.
To `CC(C)=CCC/C(C)=C/CC/C(C)=C/CC/C(C)=C/COC(=O)c1cc(O)c(O)c(O)c1` belongs 4.5 µM; to `O=C(OCCCCCCCCc1ccccc1)c1cc(O)c(O)c(O)c1`, 12.5 µM.
